Experimental data reported in patent US5071636A, “Chelating compounds and their use” (Nihon Medi-Physics Co., Ltd., priority 1987, dated 1991).

Assays:
[1] = Thin layer electrophoresis (EP) of technetium-99m-labeled compounds; format: physicochemical; details: Table 16, Tc-99m-labeled; 50 mM phosphate buffer pH 7.4, 0.5 mA/cm, room temperature, 15 minutes
Procedure: ZI. Thin layer electrophoresis for Tc-99m-(BI-11c)
An appropriate amount of Tc-99m-(BI-11c) was spotted on an acetylated cellulose membrane and subjected to electrophoresis using 50 mM phosphate buffer (pH, 7.4) as an electrode buffer at a constant current of 0.5 mA/cm and at room temperature for 15 minutes. In the same manner as in ZH, the membrane was scanned to determine the distribution of radioactivity with a thin layer radioachromatoscanner.
In the same manner as in Example 8 ZF, ZG, ZH and ZI but using other polyaminedithiol compounds instead of Compound (11c), preparation of non-radioactive carriers and radioactive diagnostic agents was made. The optimum labeling conditions for the polyaminedithiol compounds were studied. Furthermore, the physical characteristics of the produced technetium-99m-labeled polyaminedithiol compounds were evaluated.

[2] = Biodistribution in rabbits: biological half life in the brain by gamma camera imaging; format: in vivo, Japanese white rabbits (male); details: for Biological half-life in brain, First phase / Biological half-life in brain, First phase (rate) / Biological half-life in brain, Second phase / Biological half-life in brain, Second phase (rate): rabbit, in vivo; for Accumulation in the cerebral parenchymal cells / biological half life in the brain, first phase / biological half life in the brain, second phase / rate of first phase of biological half life in the brain / rate of second phase of biological half life in the brain: rabbits, Example 10; for Accumulation in the cerebral parenchymal cells: imaging; for biological half life in the brain, first phase / biological half life in the brain, second phase / rate of first phase of biological half life in the brain / rate of second phase of biological half life in the brain: via the carotid artery
Procedure: Japanese white rabbits (male) were anesthetized with a pentobarbital solution (2.5 mg/kg), and Tc-99m(BI-11o) (0.2 ml, […]) was administered via the carotid artery under a gamma camera (GCA-90B, Toshiba Co., Ltd.). Then, imaging of 112 frames (30 seconds/frame) was made in minutes. A region of interest was drawn around brain on images, and the time-activitycurve of the brain was obtained.
It was thus concluded that the above examination procedure was suitable for evaluation of the accumulation in the brain and the disappearance from the brain.
In the same manner as in Example 10 using other technetium-99m-labeled polyaminedithiol compounds instead of Tc-99m-(BI-11o), their biodistribution in rabbits was examined, and their biological half-life in the brain was calculated.

[3] = tested on: normal cerebral parenchymal cells; details: in vivo; cited from earlier work

SMILES | EP (Charge) [1] | Biological half-life in brain, First phase [2] | Biological half-life in brain, First phase (rate) [2] | Biological half-life in brain, Second phase [2] | Biological half-life in brain, Second phase (rate) [2] | Accumulation in the cerebral parenchymal cells [2] | biological half life in the brain, first phase [2] | biological half life in the brain, second phase [2] | rate of first phase of biological half life in the brain [2] | rate of second phase of biological half life in the brain [2] | accumulation in normal cerebral parenchymal cells [3]
CCCCCNCC(NCCNCC(C)(C)S)C(C)(C)S (centres unmarked) [Compound 11d, N-(2-Mercapto-2-methylpropyl)-N' -(1-n-amylaminomethyl-2-mercapto-2-methylpropyl)ethylenediamine] | .smallcircle. | 18 min | 32% | 184 min | 68% |  |  |  |  |  | 
CC(C)(S)CNCCNC(CN1CCCCC1)C(C)(C)S (centres unmarked) [Compound 11g, N-(2-Mercapto-2-methylpropyl)-N' -(2-mercapto-2-methyl-1-piperidino-methylpropyl)ethylenediamine] |  | 5 min | 23% | 60 min | 77% |  |  |  |  |  | 
CC(C)(S)CNCCNC(CN1CCNCC1)C(C)(C)S (centres unmarked) [Compound 11h, N-(2-Mercapto-2-methylpropyl)-N'-(2-mercapto-2-methyl-1-piperazinomethylpropyl)ethylenediamine] |  | 1 min | 44% | 40 min | 56% |  |  |  |  |  | 
CN1CCN(CC(NCCNCC(C)(C)S)C(C)(C)S)CC1 (centres unmarked) [Compound 11i, N-(2-Mercapto-2-methylpropyl)-N' -[2-mercapto-2-methyl-1-(4-methyl-piperazino)methylpropyl]ethylene-diamine] |  | 8 min | 50% | 686 min | 50% |  |  |  |  |  | 
CC(C)(S)CNCCNC(CN1CCOCC1)C(C)(C)S (centres unmarked) [Compound 11k, N-(2-Mercapto-2-methylpropyl)-N' -(2-mercapto-2-methyl-1-morpholino-methylpropyl)ethylenediamine] |  | 4 min | 39% | 21 min | 61% |  |  |  |  |  | 
CCCC(C)NCC(NCCNCC(C)(C)S)C(C)(C)S (centres unmarked) [Compound 11l, N-(2-Mercapto-2-methylpropyl)-N' -[1-(1-methylbutylamino)-methyl-2-mercapto-2-methylpropyl]ethylene-diamine] |  | 11 min | 34% | 132 min | 66% |  |  |  |  |  | 
CCCCCCNCC(NCCNCC(C)(C)S)C(C)(C)S (centres unmarked) [Compound 11m, N-(2-Mercapto-2-methylpropyl)-N' -(1-n-hexylaminomethyl-2-mercapto-2-methylpropyl)ethylenediamine] | .smallcircle. | 3 min | 24% | 58 min | 76% |  |  |  |  |  | 
CCCCN(CC)CC(NCCNCC(C)(C)S)C(C)(C)S (centres unmarked) [Compound 11n, N-(2-Mercapto-2-methylpropyl)-N' -[1-(N-butyl-N-ethylamino)-methyl-2-mercapto-2-methylpropyl]ethylenediamine] |  | 17 min | 42% | 198 min | 58% |  |  |  |  |  | 
CC1CCN(CC(NCCNCC(C)(C)S)C(C)(C)S)CC1 (centres unmarked) [Compound 11p, N-(2-Mercapto-2-methylpropyl)-N'-[2-mercapto-2-methyl-1-(4-methylpiperidino)methylpropyl]ethylenediamine] | .smallcircle. | 3 min | 18% | 83 min | 82% |  |  |  |  |  | 
CC(C)(S)CNCCNC(CN1CCCC1)C(C)(C)S (centres unmarked) [Compound 11r, N-(2-Mercapto-2-methylpropyl)-N'-(2-mercapto-2-methyl-1-pyrrolidinomethylpropyl)ethylenediamine] |  | 3 min | 28% | 36 min | 72% |  |  |  |  |  | 
CC(C)(S)CNCCNC(CN1CCN(Cc2ccccc2)CC1)C(C)(C)S (centres unmarked) [Compound 11w, N-(2-Mercapto-2-methylpropyl)-N'-[1-(4-benzylpiperazino)methyl-2-mercapto-2-methylpropyl]ethylenediamine] | .smallcircle. | 13 min | 60% | 144 min | 40% |  |  |  |  |  | 
CC(C)(S)CNCCNC(CN1CCC(c2ccccc2)CC1)C(C)(C)S (centres unmarked) [Compound 11x, N-(2-Mercapto-2-methylpropyl)-N'-[2-mercapto-2-methyl-1-(4-phenylpiperidino)methylpropyl]ethylenediamine] | .smallcircle. | 10 min | 46% | 150 min | 54% |  |  |  |  |  | 
CC(C)(S)C(CNCCN1CCOCC1)NCCNC(CNCCN1CCOCC1)C(C)(C)S (centres unmarked) [Compound 14r, N,N' -Bis[2-mercapto-2-methyl-1-(2-morpholinoethylamino)methylpropyl]-ethylenediamine] | .smallcircle. |  |  |  |  |  |  |  |  |  | 
CC(C)(S)C(CNCCCN1CCOCC1)NCCNC(CNCCCN1CCOCC1)C(C)(C)S (centres unmarked) [Compound 14s, N,N'-Bis[2-mercapto-2-methyl-1-(3-morpholinopropylamino)methyl-propyl]ethylenediamine] | .smallcircle. |  |  |  |  |  |  |  |  |  | 
CCCCSC(C)(C)CNCCNC(CN1CCC(C)CC1)C(C)(C)S (centres unmarked) [Compound 33, N-(2-Butylthio-2-methylpropyl)-N'-[2-mercapto-2-methyl-1-(4-methylpiperidino)methylpropyl]-ethylenediamine] | .smallcircle. | 7 min | 26% | 148 min | 74% |  |  |  |  |  | 
CC(C)NC(C)Cc1ccc([123I])cc1 (centres unmarked) [Compound I-123-IMP, N-isopropyl-2-methyl-p-iodo(I-123)-phenethylamine, reference compound] |  |  |  |  |  | observed | 71 minutes | 98 minutes | 39% | 61% | 
O=C([O-])CN(CCN(CC(=O)[O-])CC(=O)[O-])CCN(CC(=O)[O-])CC(=O)[O-].[99Tc+4] [^99m Tc-DTPA, ^99m Tc-labeled diethylenetriaminepentaacetic acid, reference compound] |  |  |  |  |  | no accumulation was seen | 2 minutes | 18 minutes | 75% | 25% | not accumulating
